In data set [1] the test system is serum hepatic transaminases. Conditions: in vivo; cited from earlier work.
For data set [2] the following is noted: cited from earlier work.
A short description of data set [3]: Solubility of agomelatine in water or aqueous isopropanol (IPA). In kind it is physicochemical. Conditions: 32° C. On the procedure: The solubility of agomelatine in water or different concentrations of aqueous isopropanol (IPA) was assessed. As shown in the table below, the solubility of agomelatine in aqueous IPA solutions increased with increasing IPA content. Agomelatine was formulated at its saturation concentration in different concentrations of aqueous IPA and drug flux through human cadaver skin was assessed using a modified Franz-cell apparatus, using 0.1 mL solution per cm^2.

The conditions of data set [4]: cited from earlier work. The source holds these as a separate data set.
Data set [5] can be described thus: Pharmacokinetics of oral agomelatine (background). It is filed as in vivo, human. Conditions: current commercial oral dosage, humans. On the procedure: Oral dosage forms (tablets) of agomelatine have been approved in Europe under the trade names Valdoxan, Melitor, and Thymanax. Each tablet contains 25 mg agomelatine, prescribed at an initial dose of 1 tablet taken at bedtime, which dose may be increased to 2 tablets (50 mg) as needed. Oral agomelatine is well absorbed (although greater in women than in men), however, oral bioavailability is only 5% with large variations. The limited bioavailability is believed to be due to heavy first-pass liver metabolism, predominantly by cytochrome CYP1A2 of the P450 isoenzyme system, which results in conjugated metabolites of hydroxylated and demethylated agomelatine. […] The agomelatine oral tablet product produces a human plasma concentration-time pharmacokinetic (PK) profile with a Cmax of about 6 ng/ml, declining thereafter thereafter with a t1/2 of less than 2 hours.

Each structure is given as a SMILES string. Values after ≈ are worked out from the molar mass of the structure shown.

In general, solubility refers to the concentration that dissolves in the medium under given conditions. Read a low solubility as a poorly soluble substance. Take `COc1ccc2cccc(CCNC(C)=O)c2c1` [Agomelatine, N-[2-(7-methoxynaphthalen-1-yl)ethyl]acetamide]: the “increases in serum hepatic transaminases” value in data set [1] is listed as “as high as three times the upper limit of normal range”. In addition, the “individuals with increases in serum hepatic transaminases” value in data set [1] was “up to 1%”. In data set [2], the solubility in water is 0.2 mg/mL (≈ 0.822 mM). Besides, the solubility in data set [3] (0 (water)) is 0.4 mg/mL (≈ 1.64 mM); in data set [3] (25 v/v % aqueous isopropanol, aqueous with cosolvent or surfactant or cyclodextrin, 25 v/v % aqueous IPA), 3 mg/mL (≈ 12.3 mM); in data set [3] (50 v/v % aqueous isopropanol, aqueous with cosolvent or surfactant or cyclodextrin, 50 v/v % aqueous IPA), 51 mg/mL (≈ 210 mM); in data set [3] (75 v/v % aqueous isopropanol, aqueous with cosolvent or surfactant or cyclodextrin, 75 v/v % aqueous IPA), 139 mg/mL (≈ 571 mM); in data set [3] (90 v/v % aqueous isopropanol, aqueous with cosolvent or surfactant or cyclodextrin, 90 v/v % aqueous IPA), over 150 mg/mL. For the same compound, the “bound to plasma protein” value in data set [4] (in vivo) is given as 95%. Moreover, the “plasma half-life (t1/2)” value in data set [4] (in vivo) is 1 to 2 h. In addition, the oral bioavailability in data set [4] (oral) is 5%. In data set [5], the “systemic delivery of agomelatine after hepatic metabolism” value is 1.25 to 2.5 mg.

(Values after patent publication US20160184246A1, “TRANSDERMAL DRUG DELIVERY SYSTEMS FOR AGOMELATINE” (Noven Pharmaceuticals, Inc., priority 2014, published 2016).)
